Patent publication US20240016946A1, “DRUG-LOADED MACROMOLECULE AND PREPARATION METHOD THEREFOR” (SHANGHAI SENHUI MEDICINE CO., LTD., priority 2020, published 2024)
Where “and” joins values, the source holds several entries; their conditions need not be identical. Equal values may be shown once.

Columns and labels:
platelet (PLT) = test: Effect of single intravenous injection on platelet count in beagle dogs (Test Example 5); type: in vivo
Method: Method of administration: the weight was measured and the dosing amount was calculated based on the weight; the administration regimen is shown in Table 13 below. The drugs were slowly administered by intravenous injection. Blood was collected from the jugular vein or by other suitable means, about 1 mL per sample.

[1] = Pharmacokinetic study, single intravenous injection to beagle dogs, docetaxel macromolecules (Test Example 2); type: in vivo; conditions: single IV 3 mg/kg, free docetaxel in plasma, mean (1 male + 1 female)
Method: Docetaxel (84 mg/vial, commercially available) was dissolved in 5% (final volume) DMSO+30% PEG300+5% Tween 80+60% deionized water to obtain 0.6 mg/mL formulations for intravenous injection.
Beagle dogs, non-naïve, sourced from Medicilon: 999M-004.
Method of administration: the weight was measured and the dosing amount was calculated based on the weight. The drugs were slowly administered by intravenous injection. Blood was collected from the jugular vein or by other suitable means, about 1 mL per sample. Plasma samples were collected before administration and at different time points after administration and tested for free docetaxel level in plasma. For the docetaxel group, collection was performed before administration and at 0.083 h, 0.5 h, 1 h, 2 h, 4 h, 6 h, 8 h and 24 h after administration.

[2] = system: human lung cancer cell A549; test: Antitumor effect in subcutaneous tumor graft model of human lung cancer cell A549 (Test Example 3); type: in vivo, BALB/C nude mice; conditions: for Tumor volume: i.v. QW × 4 doses, docetaxel 20, 1-Z00 20, 1-Z00-J 10 mg/kg
Method: Samples are prepared according to Table 5 below.
BALB/C nude mice, female, 6-7 week old (the age when tumor cell inoculation was performed), weighing 16.5-22.6 g, purchased from GemPharmatech Co., Ltd., certificate No. 320727210100243463. Housing environment: SPF.
A549 cells (National Collection of Authenticated Cell Cultures/Cell Bank of Shanghai Institutes for Biological Sciences (cellbank.org.cn, SIBS)) were cultured in an F12K medium (Gibco) containing 10% fetal bovine serum. Cells were collected when growing at the exponential phase and resuspended in PBS to a suitable concentration for use in subcutaneous tumor inoculation in mice.
5×10^6 A549 cells were subcutaneously inoculated into the right side of female mice (inoculation volume: 0.1 mL/mouse). The day of inoculation was defined as day 0. When the mean tumor volume was 142.96 mm^3 (on day 13 after cell inoculation), the mice were randomly grouped according to tumor size as shown in Table 6 below (dosing volume: 10 μL/g).
After tumor inoculation, routine monitoring items included the effect of tumor growth and treatment on the normal behavior of animals, including activity, food intake and water intake, weight gain or loss (body weight was measured twice a week), abnormalities in eyes, hair, etc. Clinical symptoms observed during the experiment were all recorded in the raw data. Tumor volume calculation formula: tumor volume (mm^3)=½×(a×b^2) (where a represents long diameter and b represents short diameter). In the experiment, data collection, including measurement of tumors' long and short diameters and animals' body weight, was performed using StudyDirector™ (version: 3.1.399.19; supplier: Studylog System, Inc., S. San Francisco, CA, USA) software. Raw data measured by scales and vernier calipers were directly imported into the software. Any changes in the data were recorded in the software.
When the body weight of an individual animal decreased by >20%, it was euthanized according to animal welfare.
Relative tumor proliferation rate, T/C (%), refers to the percentage value of the relative tumor volume or tumor weight of the treatment group and the control group at a certain time point. The calculation formula is: T/C %=TRTV/CRTV×100% (TRTV: mean RTV of treatment group; CRTV: mean RTV of control group; RTV=Vt/V0, V0 is the tumor volume of the animal at the time of grouping, and Vt is the tumor volume of the animal after treatment).
All the results are expressed as mean tumor volume±SEM (standard error of the mean). The best point of drug treatment (usually after the last administration) was selected for statistical analysis between different groups. A two-way ANOVA was used to determine whether there was a significant difference in tumor volume between a treatment group and the control group. p<0.05 indicates a significant difference. Statistical analysis and graphing were both performed in the R language environment (version 3.3.1). All tests were two-tailed unless otherwise specified. A p value less than 0.05 was considered statistically significant.

[3] = Hematological analysis (complete blood count) in the A549 subcutaneous tumor graft model (Test Example 3)
Method: After the last administration, plasma was collected at the time points designated in Table 7 (EDTA anticoagulant tubes were used (the esterase inhibitor DDVP was added at the time of blood collection)). After plasma collection at the last time point was complete, the mice were euthanized, and tumors were collected, snap frozen and stored.

[4] = Pharmacokinetic study, single intravenous injection to rats (Test Example 1); type: in vivo, SD rats
Method: • (1) Preparation of docetaxel: commercially available docetaxel injection (0.5 mL:20 mg) was diluted to 4 mg/mL with normal saline; • (2) Preparation of other test compounds: the compounds were dissolved in DMSO with a final concentration of 5%, and the solutions were diluted to 4 mg/mL with normal saline.
Female SD rats, weighing 160-180 g, 6 weeks old, SPF
Plasma samples were separated, and the esterase inhibitor DDVP was added. The samples were stored at −80° C. and tested for docetaxel level (N=3).

[5] = day 21 after administration began, docetaxel 20, 1-Z00 20, 1-Z00-J 10 mg/kg i.v. QW × 4
[6] = A549 tumor-bearing mice after last administration, docetaxel 20, 1-Z00 20, 1-Z00-J 10 mg/kg i.v., mean ± standard deviation
[7] = female SD rats, single IV 10 mg/kg, docetaxel level in plasma, N=3
[8] = rat, female SD rats, single IV 10 mg/kg, docetaxel level in plasma, N=3

O=C(NS(=O)(=O)c1ccc(N[C@@H](CSc2ccccc2)C[C@@H]2CCCN2CCO)c(S(=O)(=O)C(F)(F)F)c1)c1ccc(N2CCC([C@@H](O)c3ccccc3-c3ccc(Cl)cc3)CC2)cc1 [Compound 3]
Day 2 (24 h after administration) PLT mean value (platelet (PLT); beagle dogs, 24 h after single IV 3 mg/kg, mean): 34.00 10^9/L
Day 1 (before administration) PLT mean value (platelet (PLT); beagle dogs, before single IV 3 mg/kg (baseline), mean): 355.00 10^9/L
Difference (%) between PLT count in dogs at 24 h after administration and that before administration (platelet (PLT); beagle dogs, single IV 3 mg/kg): −90.42%
mortality (animals died) (platelet (PLT); beagle dogs, single IV 3 mg/kg, 3 dogs with compound 3, 2 dogs per dendrimer): 2
Day 2 (24 h after administration) PLT (platelet (PLT); individual male beagle dog, 24 h after single IV 3 mg/kg): 34.00 10^9/L
Day 1 (before administration) PLT (platelet (PLT); individual male beagle dog, before single IV 3 mg/kg (baseline)): 355.00 10^9/L

CC(=O)O[C@@]12CO[C@@H]1C[C@H](O)[C@@]1(C)C(=O)[C@H](O)C3=C(C)[C@@H](OC(=O)[C@H](O)[C@@H](NC(=O)OC(C)(C)C)c4ccccc4)C[C@@](O)([C@@H](OC(=O)c4ccccc4)[C@H]21)C3(C)C [Docetaxel]
AUC(0-inf) ([1]; both sexes, dog): 2040 ng·h/mL
AUC(0-t) ([1]; both sexes, dog): 1890 ng·h/mL
clearance ([1]; both sexes, dog): 24.6 mL/min/kg
half-life ([1]; both sexes, dog): 13.5 h
Vd ([1]; both sexes, dog, read-out: Vdss): 7.39 L/kg
AUMC0-inf [1]: 10234 h·h·ng·mL^−1
AUMC0-t [1]: 3854 h·h·ng·mL^−1
Kel [1]: 0.0515 h⁻¹
Mean residence time (MRT) [1]: 5.02 h
Tumor volume ([2]; day 0 after administration began (baseline at grouping), mean ± standard error): 142.49 ± 6.17 mm^3
Tumor volume ([2]; day 3 after administration began, mean ± standard error): 187.27 ± 18.12 mm^3
Tumor volume ([2]; day 7 after administration began, mean ± standard error): 294.09 ± 32.19 mm^3
Tumor volume ([2]; day 10 after administration began, mean ± standard error): 362.73 ± 41.13 mm^3
Tumor volume ([2]; day 14 after administration began, mean ± standard error): 460.59 ± 68.72 mm^3
Tumor volume ([2]; day 17 after administration began, mean ± standard error): 502.25 ± 84.97 mm^3
T/C (relative tumor proliferation rate) [2, 5]: 33.76%
TGI (relative tumor inhibition) [2, 5]: 66.24%
Relative tumor volume ([2]; day 21 after administration began, docetaxel 20, 1-Z00 20, 1-Z00-J 10 mg/kg i.v. QW × 4, mean ± standard error): 3.87 ± 0.61
Tumor volume ([2]; day 21 after administration began, mean ± standard error): 564.93 mm^3 and 564.93 ± 108.61 mm^3
decrease of white blood cells, lymphocytes and mononuclear cells compared to the vehicle control group (factor) ([3]; 20 mg/kg i.v.): 2-3
Eosinophil EO# [3, 6]: 0.02 ± 0.02 10^9/L
Lymphocyte LYMPH# [3, 6]: 1.58 ± 0.39 10^9/L
Mononuclear cell MONO# [3, 6]: 0.11 ± 0.02 10^9/L
Neutrophil NEUT# [3, 6]: 0.81 ± 0.47 10^9/L
White blood cell count WBC [3, 6]: 2.52 ± 0.08 10^9/L
AUMC0-inf [4, 7]: 2663.5 h · h · ng · mL^−1
AUMC0-t [4, 7]: 1669.3 h · h · ng · mL^−1
Kel [4, 7]: 0.3 h⁻¹
MRTIV [4, 7]: 1.8 h
AUC(0-inf) [4, 8]: 1480 ng·h/mL
AUC(0-t) [4, 8]: 1400 ng·h/mL
C0 [4, 8]: 2840 ng/mL
Cmax [4, 8]: 1990 ng/mL
clearance [4, 8]: 116 mL/min/kg
half-life [4, 8]: 2.1 h
Vd ([4]; rat, female SD rats, single IV 10 mg/kg, docetaxel level in plasma, N=3, read-out: VdSS): 12.1 L/kg
sustained-release effect, exposure and clearance (conclusion in words) ([4]; rats, IV 10 mg/kg): rapid plasma clearance and low exposure
